Measurements taken from patent publication US6737433B1, “1-N-phenylamino-1H-imidazole derivatives as aromatase inhibitors and pharmaceutical compositions containing them” (Laboratoire Theramex, priority 2002, dated 2004).

Tests used:
human aromatase = biological target: T1, human aromatase (Homo sapiens, UniProt P11511); assay: Inhibition of human aromatase in vitro in JEG-3 cells (3H-water release from 1β-3H-androstenedione); format: cell-based; details: 10 nM 1β-3H-androstenedione, 2 h incubation
T1 construct: The JEG-3 cell line, derived from a human placental choriocarcinoma, is intrinsically very rich in human aromatase; endogenous in cells; host or cells: JEG-3 (human placental choriocarcinoma)
T1 sequence (P11511 1-503): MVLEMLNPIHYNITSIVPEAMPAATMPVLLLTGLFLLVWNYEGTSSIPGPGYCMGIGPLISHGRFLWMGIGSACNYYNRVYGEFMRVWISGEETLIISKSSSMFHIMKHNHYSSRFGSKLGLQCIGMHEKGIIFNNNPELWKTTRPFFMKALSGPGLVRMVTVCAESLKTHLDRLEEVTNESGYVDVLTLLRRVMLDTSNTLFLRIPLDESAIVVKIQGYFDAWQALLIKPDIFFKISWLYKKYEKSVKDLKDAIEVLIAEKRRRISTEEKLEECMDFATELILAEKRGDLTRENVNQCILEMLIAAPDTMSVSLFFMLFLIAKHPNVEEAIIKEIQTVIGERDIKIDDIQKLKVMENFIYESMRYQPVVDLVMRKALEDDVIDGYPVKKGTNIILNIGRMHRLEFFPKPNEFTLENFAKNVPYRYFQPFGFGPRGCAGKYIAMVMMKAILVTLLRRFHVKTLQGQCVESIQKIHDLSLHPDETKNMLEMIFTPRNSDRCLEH
Description: Stocks of JEG-3 cells are grown up to 80% of confluence as monolayers in plastic flasks in minimum Eagle's medium with 1 g/l glucose and 10% decomplemented fetal calf serum at pH 7.4 and 37° C., under a 5% CO2 atmosphere. Then, 24 hours before aromatase activity measurement, JEG-3 cells are distributed for seeding in 96-well microplates (60,000 to 100,000 viable cells in 100 μl of culture medium per well); 24 hours later, microplates are rinsed and fresh medium containing the radioactive aromatase substrate (1β-^3H-androstenedione, 10 nM) is added together with test compounds dissolved with 1% dimethylsulfoxyde in a test concentration range between 10^−11 and 10^−4 M in a total volume of 150 μl.
Two hours after the beginning of the incubation, 100 μl of the supernatants are transferred to homologous new 96-well microplates. A solution of dextran-coated charcoal (1%) is added in each well (100 μl/well); after standing for 10 minutes on ice, microplates are centrifuged (1500 g) for 10 more minutes at 4° C. All steroids, including the radioactive substrate and the newly biosynthesized estrogens, are trapped complexed by the charcoal; only the ^3H-water specifically formed during aromatisation of 1β-^3H-androstenedione, involving a specific oxidative step removing the 1β-^3H, remains in the supernatant at this stage.
Finally, aromatase activity is expressed in fmoles/μg DNA in 2 hours and aromatase inhibition in percentage of control incubation without inhibitors.

aromatase = biological target: T2, aromatase (Rattus norvegicus, UniProt P22443); assay: Inhibition of aromatase in vivo: inhibition of preovulatory surge of plasma estradiol in female Wistar rats; details: single oral dose 10 μg/kg on diestrus, plasma estradiol 24 h later, vs vehicle controls; range = independent studies
T2 construct: from tissue; host or cells: whole animal: adult female Wistar rats (endogenous enzyme)
T2 sequence (P22443 1-508): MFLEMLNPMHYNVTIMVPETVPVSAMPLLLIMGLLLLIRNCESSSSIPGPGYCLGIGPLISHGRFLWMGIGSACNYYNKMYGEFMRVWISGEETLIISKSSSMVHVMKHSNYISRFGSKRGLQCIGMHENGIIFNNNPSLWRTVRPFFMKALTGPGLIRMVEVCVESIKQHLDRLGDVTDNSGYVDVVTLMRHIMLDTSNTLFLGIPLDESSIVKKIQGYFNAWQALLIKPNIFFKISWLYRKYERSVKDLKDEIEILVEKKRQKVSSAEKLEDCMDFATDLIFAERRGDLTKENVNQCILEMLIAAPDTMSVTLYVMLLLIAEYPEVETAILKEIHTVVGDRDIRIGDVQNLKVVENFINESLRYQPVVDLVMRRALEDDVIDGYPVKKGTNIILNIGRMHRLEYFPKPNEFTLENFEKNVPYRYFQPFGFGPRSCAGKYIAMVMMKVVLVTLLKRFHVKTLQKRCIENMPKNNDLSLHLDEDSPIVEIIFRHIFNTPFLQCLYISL
Source text: Aromatase is the steroidogenic enzyme responsible for the biosynthesis of estradiol, the main female sex hormone among estrogens. In the rat, estradiol is physiologically synthesized to high circulating levels in a particular period during the 4-day estrous cycle: it is the so-called preovulatory surge taking place in the afternoon of proestrus, just before ovulation which occurs during the night between proestrous and estrous phases. A sensitive physiological model for in vivo evaluation of aromatase inhibition was developped based on the inhibition of this preovulatory surge of estradiol levels.
Adult female Wistar rats are monitored for regular 4-day estrous cyclicity by daily vaginal smear examination; after 2 or 3 regular cycles, animals are treated by a single oral administration of the very low discriminative dose of 10 micrograms/kg in a 4 ml/kg volume around 04:00 PM on diestrus, i.e. on the day before proestrus. Precisely 24 hours later, aortic blood samples are drawn under gaseous anesthesia. Plasma estradiol levels are measured by radioimmunoassay with commercially available kits (Diagnostic Systems Laboratories, Webster, Tex., U. S. A.). Control and test groups usually consist of 7 to 10 rats, depending on the number of regularly cycling rats to distribute among study groups. Results are expressed in pg/ml and then in % of inhibition taking the estradiol levels of control animals receiving only the oral vehicle as the 100% reference to allow comparisons between different independent studies, since the preovulatory surge level may vary in each control group from one study to another between about 25 to 40 pg/ml.

Structure (SMILES)	IC50 (human aromatase) [nM]	% inhibition at 10 μg/kg (aromatase)	melting point [°C]
N#Cc1ccc(N(Cc2ccc(F)cc2)n2ccnc2)cc1 [Example 14, 4-[N-(1H-imidazol-1-yl)-N-(4-fluorophenylmethyl)amino]benzonitrile]	0.16 ± 0.02	49%-57%	
N#Cc1ccc(N(Cc2ccc(F)c(F)c2)n2ccnc2)cc1 [Example 17, 4-[N-(1H-imidazol-1-yl)-N-(3,4-difluorophenylmethyl)amino]benzonitrile]	0.24 ± 0.02	60%	132
N#Cc1ccc(N(Cc2ccc(C(F)(F)F)cc2)n2ccnc2)cc1 [Example 6, 4-[N-(1H-imidazol-1-yl)-N-(4-trifluoromethylphenylmethyl)amino]benzonitrile]	0.31 ± 0.01	57%	134
N#Cc1ccc(CN(c2ccc(C#N)cc2)n2ccnc2)cc1 [Example 11, 4-[N-(1H-imidazol-1-yl)-N-(4-cyanophenylmethyl)amino]benzonitrile]	0.18 ± 0.02	57%-59%	
N#Cc1ccc(N(Cc2ccc(Br)cc2)n2cncn2)cc1 [YM 511, reference compound]	0.3 ± 0.04	35%	
CC(C)(C#N)c1cc(Cn2cncn2)cc(C(C)(C)C#N)c1 [Anastrozole, anastrozole, reference compound]		18%-33%	
N#Cc1ccc(N(Cc2ccc(Cl)cc2)n2ccnc2)cc1 [Example 7, 4-[N-(1H-imidazol-1-yl)-N-(4-chlorophenylmethyl)amino]benzonitrile]	0.14 ± 0.05	47%	
